Patent US20260182575A1, “MOLECULES HAVING PESTICIDAL UTILITY AND INTERMEDIATES AND PROCESSES RELATED THERETO” (CORTEVA AGRISCIENCE LLC, priority 2022, published 2026)
“And” between values parts separate entries of the source, which are not always exact repeats. Equal values may be shown once.

Tests used:
Assay type in all cases: in vivo
[1] = system: Western Flower Thrips (Frankliniella occidentalis, FRANOC, WFT); assay: Bioassay 3: western flower thrips, cotton leaf disc dip; conditions: AI alone at 1:1 rate to F1 0.78 (10^-6 Wt %), 3 days
[2] = system: Corn Earworm (Helicoverpa zea, HELIZE, CEW); assay: Bioassay 4: corn earworm, artificial diet, 128-cell tray; conditions: AI alone
Procedure, shortened: (§1)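 Test solutions (0.0000004–0.04% w/v, i.e. 0.00005–5 μg/cm² on diet) were pipetted onto artificial lepidopteran diet and one 2nd-instar larva was placed per cell, 8 replicates per species, held at ~26° C. Live larvae were counted after 5 days; percent control used Abbott's correction against a solvent check.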

[3] = system: Fall Armyworm (Spodoptera frugiperda, LAPHFR, FAW); assay: Bioassay 4: fall armyworm, artificial diet, 128-cell tray; conditions: AI alone
Procedure, shortened: as §1

[4] = system: Soybean Looper (Chrysodeixis includens, PSEPIN, SBL); assay: Bioassay 4: soybean looper, artificial diet, 128-cell tray; conditions: AI alone
Procedure, shortened: as §1

[5] = system: Brown Planthopper (Nilaparvata lugens, NILALU, BPH); assay: Bioassay 6: brown planthopper, sprayed rice seedlings; conditions: AI alone, AI Rate 0.049 g/ha, 6 days
Method: At these rates, F1 and the individual active ingredients were tested at a ratio of 1:1. […] F1 and triflumezopyrim were tested at a ratio of 16:1. Test solutions were prepared containing F1, the individual active ingredients, and mixtures of F1 with each of the active ingredients. Test solutions were prepared by weighing 5 mg of each test chemistry (either alone or in combination depending on the treatment) into a 25 mL glass vial. Next, 1 mL of acetone was added to each vial to dissolve the test chemistries, followed by 19 mL of water with 0.125% Tween 20 adjuvant. This test solution represented the 50 g/ha treatment, which was then serially diluted four-fold to create the three lower rates of 12.5, 3.125, and 0.78 g/ha. Triflumezopyrim was prepared in a similar manner, but two additional serial dilutions were conducted to create solutions representing 6 rates of 12.5, 3.125, 0.78, 0.19, 0.049, and 0.012 g/ha. The higher two doses were discarded, and the four lower doses were used for testing. Each rate was replicated four times, and solvent blanks were used as control treatments.
Five (5) rice seedlings (10-12 days old) planted in 3-inch pots were used as test plants. Rice seedlings were grown in soil and the soil was covered with a 2% agar solution. The test solutions were applied to test plants using a Devries laboratory research sprayer, set to spray at 200 liters per hectare (L/ha) using a TeeJet hollow cone nozzle. Following application, the rice seedlings were dried for 1 hour, after which a single clear plastic tube (2 inches in diameter×12 inches in height) was placed over the seedlings in each pot. The tube was pushed down into the agar to create a sealed test chamber. The agar prevented insects from hiding in the soil and made adult collection and grading easier. Ten to fifteen (10-15) 5th instar BPH nymphs were transferred to each test chamber using a vacuum aspirator. Immediately following BPH infestation, the test chamber was covered with a piece of grade 90 cheesecloth and secured with a rubber band, sealing the test chamber. The test chambers were held at 25° C. for 6 days, after which the total number of live insects was counted in each test chamber. Percent control was measured using Abbott's correction formula (W. S. Abbott, J. Econ. Entomol. 18 (1925), pp. 265-267) as follows:
where X=No. of live insects on solvent check and Y=No. of live insects in treated chambers. In Table B6 the “Expected % Control” was calculated using the method described in Colby S. R., Weeds, 1967, 15, 20-22. Bioassay 7: Corn Earworm (Helicoverpa zea, HELIZE, “CEW”), Fall Armyworm (Spodoptera frugiperda, LAPHFR, “FAW”), Beet Armyworm (Spodoptera exigua, LAPHEG, “BAW”),and Soybean Looper (Chrysodeixis includens, PSEPIN, “SBL”).

[6] = system: Sweet Potato Whitefly (Bemisia tabaci, BEMITA, SPW); assay: Bioassay 2: sweet potato whitefly, cotton seedling foliar spray; conditions: AI alone
Method: Stock solutions were prepared with F1 as well as for each of the active ingredients individually. Test solutions were prepared from the stock solutions. Test solutions were prepared containing F1, the individual active ingredients, and mixtures of F1 with each of the active ingredients. The test solutions for F1 and the individual active ingredients were prepared by adding 500 μL of stock solution to a 25 mL glass vial, then adding 500 μL of acetone, followed by the addition of 9 mL water with 0.025% Tween® 20 to create a 0.001% (w/v) solution. The test solutions containing mixtures of F1, and the individual active ingredients were prepared by adding 500 μL of the active ingredient stock solution to a 25 mL glass vial, followed by 500 μL of the F1 stock solution, then by the addition of 9 mL water with 0.025% Tween® 20 to create a test solution containing 0.001% (w/v) F1 and 0.001% (w/v) of the active ingredient. Each test solution was serially diluted to create desired doses of test solutions (0.001% (w/v), 0.0001% (w/v), 0.00001% (w/v), 0.000001% (w/v), 0.0000001% (w/v), and 0.00000001% (w/v)).
The test solutions were tested against SPW using the following procedure: Cotton seedlings grown in 3-inch pots, pruned so that only one true leaf remained, were used as test substrate. Adult B. tabaci were allowed to colonize the cotton plants and lay eggs for 24 hours after which all adults were removed from the plants using compressed air. Plants were monitored for egg development, and when crawler emergence was underway (>25% emergence based on visual examination using a microscope), the plants were sprayed using the test solutions and methods described above for green peach aphids (GPA). Treated plants were held in a holding room at approximately 25° C. and ambient relative humidity (RH) prior to grading. Evaluation was conducted by counting the number of developed 2-3 instar nymphs per plant under a microscope 7-9 days after treatment. Percent control was measured using Abbott's correction formula (W. S. Abbott, J. Econ. Entomol. 18 (1925), pp. 265-267) as follows:
where X=No. of live nymphs on solvent check plants and Y=No. of live nymphs on treated plants. In Table B2 the “Expected % Control” was calculated using the method described in Colby S. R., Weeds, 1967, 15, 20-22. Bioassay 3: Western Flower Thrips (Frankliniella occidentalis, FRANOC, “WFT”).

Compound | Average % Control AI [1] [%] | Average % Control AI ([2]; 0.000004 wt %) [%] | Average % Control AI ([2]; 0.00004 wt %) [%] | Average % Control AI ([3]; 0.000004 wt %) [%] | Average % Control AI ([4]; 0.000004 wt %) [%] | Average % Control AI [5] | Average % Control AI ([6]; Wt % AI 0.0001, 7-9 days) [%] | Average % Control AI ([3]; 0.00004 wt %) [%] | Average % Control AI ([4]; 0.00004 wt %) [%] | Average % Control AI ([6]; Wt % AI 0.00001, 7-9 days) [%]
CCN(C(=O)CCS(C)(=O)=O)c1sc(-c2cccnc2)nc1Cl [AI-1, N-(4-chloro-2-(pyridin-3-yl)thiazol-5-yl)-N-ethyl-3-(methylsulfonyl)propanamide] | 9.5 | 0.0 | 0.0 | 0.0 | 12.5 | 0.0% | – | – | – | –
N#CCNC(=O)c1cnccc1C(F)(F)F [Flonicamid] | – | 0.0 | 0.0 | 0.0 | 0.0 | 5.4% and 1.1% | 0.0 | 0.0 | 0.0 | –
O=C1C=C(N(Cc2ccc(Cl)nc2)CC(F)F)CO1 [Flupyradifurone] | – | 0.0 | 0.0 | 0.0 | 0.0 | 16.3% and 7.6% | 39.2 | 0.0 | 0.0 | 22.9
